Measurements as given in PubChem BioAssay AID1259407 (Chemical Carcinogenesis Research Information System (CCRIS), 2018).
Calls of active or inactive are those of the source. No rule for the calls is given here.

System: CCRIS mutagenicity, Ames/micronucleus/aberration tests
Assay: CCRIS mutagenicity studies
[1] = Test System: AMES SALMONELLA TYPHIMURIUM, Strain/Indicator: TA98, Metabolic Activation: NONE, Method: STANDARD PLATE
[2] = Test System: AMES SALMONELLA TYPHIMURIUM, Strain/Indicator: TA100, Metabolic Activation: NONE, Method: STANDARD PLATE
[3] = Test System: AMES SALMONELLA TYPHIMURIUM, Strain/Indicator: TA100, Metabolic Activation: RAT, LIVER, S-9, AROCLOR 1254, Method: STANDARD PLATE
[4] = Test System: AMES SALMONELLA TYPHIMURIUM, Strain/Indicator: TA1535, Metabolic Activation: NONE, Method: STANDARD PLATE
[5] = Test System: AMES SALMONELLA TYPHIMURIUM, Strain/Indicator: TA1535, Metabolic Activation: RAT, LIVER, S-9, AROCLOR 1254, Method: STANDARD PLATE
[6] = Test System: AMES SALMONELLA TYPHIMURIUM, Strain/Indicator: TA1537, Metabolic Activation: NONE, Method: STANDARD PLATE
[7] = Test System: AMES SALMONELLA TYPHIMURIUM, Strain/Indicator: TA1538, Metabolic Activation: NONE, Method: STANDARD PLATE
[8] = Test System: AMES SALMONELLA TYPHIMURIUM, Strain/Indicator: TA1538, Metabolic Activation: RAT, LIVER, S-9, AROCLOR 1254, Method: STANDARD PLATE
[9] = Test System: AMES SALMONELLA TYPHIMURIUM, Strain/Indicator: TA98, Metabolic Activation: NONE, Method: PREINCUBATION
[10] = Test System: AMES SALMONELLA TYPHIMURIUM, Strain/Indicator: TA100, Metabolic Activation: NONE, Method: PREINCUBATION
[11] = Test System: AMES SALMONELLA TYPHIMURIUM, Strain/Indicator: TA100, Metabolic Activation: RAT, LIVER, S-9, PCB, Method: PREINCUBATION

For `CCCC(O)C(CC)CO` (stereo unspecified), the mutagenic call (Test System: AMES SALMONELLA TYPHIMURIUM, Strain/Indicator: TA98, Metabolic Activation: HAMSTER, LIVER, S-9, AROCLOR 1254, Method: STANDARD PLATE) was “inactive; negative”, the mutagenic call [1] was “inactive; negative” and the mutagenic call (Test System: AMES SALMONELLA TYPHIMURIUM, Strain/Indicator: TA98, Metabolic Activation: RAT, LIVER, S-9, AROCLOR 1254, Method: STANDARD PLATE) was “inactive; negative”. For the same compound, the mutagenic call (Test System: AMES SALMONELLA TYPHIMURIUM, Strain/Indicator: TA100, Metabolic Activation: HAMSTER, LIVER, S-9, AROCLOR 1254, Method: STANDARD PLATE) was “inactive; negative”, the mutagenic call [2] was “inactive; negative” and the mutagenic call [3] was “inactive; negative”. For the same compound, the mutagenic call (Test System: AMES SALMONELLA TYPHIMURIUM, Strain/Indicator: TA1535, Metabolic Activation: HAMSTER, LIVER, S-9, AROCLOR 1254, Method: STANDARD PLATE) was “inactive; negative”, the mutagenic call [4] was “inactive; negative” and the mutagenic call [5] was “inactive; negative”. The mutagenic call (Test System: AMES SALMONELLA TYPHIMURIUM, Strain/Indicator: TA1537, Metabolic Activation: HAMSTER, LIVER, S-9, AROCLOR 1254, Method: STANDARD PLATE) was “inactive; negative”, the mutagenic call [6] was “inactive; negative” and the mutagenic call (Test System: AMES SALMONELLA TYPHIMURIUM, Strain/Indicator: TA1538, Metabolic Activation: HAMSTER, LIVER, S-9, AROCLOR 1254, Method: STANDARD PLATE) was “inactive; negative”. The mutagenic call [7] was “inactive; negative”, the mutagenic call [8] was “inactive; negative” and the mutagenic call (Test System: MOUSE LYMPHOMA, Strain/Indicator: L5178Y (TK+/TK-), Metabolic Activation: NONE, Method: SUSPENSION/PLATE) was “inactive; positive. reevaluation of results: negative”. For the same compound, the mutagenic call (Test System: MOUSE LYMPHOMA, Strain/Indicator: L5178Y (TK+/TK-), Metabolic Activation: RAT, LIVER, S-9, AROCLOR 1254, Method: SUSPENSION/PLATE) was “inactive; negative. reevaluation of results: negative”.
In the case of `CCN(CC)c1ccc(N=Nc2c(Cl)cc([N+](=O)[O-])cc2[N+](=O)[O-])c(NC(C)=O)c1`, the mutagenic call (End Point: IN VITRO CHROMOSOMAL ABERRATIONS, Test System: CHL CELLS, Metabolic Activation: NONE) is reported as “inactive; negative; precipitation of test chemical observed above 0.01 mg/ml”.
`Cc1ccc(C)c2c1c1ccccc1n2C` was tested, and the mutagenic call [1] was “inactive; negative”, the mutagenic call (Test System: AMES SALMONELLA TYPHIMURIUM, Strain/Indicator: TA98, Metabolic Activation: RAT LIVER S-9, AROCLOR 1254, Method: STANDARD PLATE) was “active; positive” and the mutagenic call [2] was “inactive; negative”. For the same compound, the mutagenic call (Test System: AMES SALMONELLA TYPHIMURIUM, Strain/Indicator: TA100, Metabolic Activation: RAT LIVER S-9, AROCLOR 1254, Method: STANDARD PLATE) was “active; positive”.
In the case of `NC(=O)CN1CC(O)CC1=O` (stereo unspecified), the mutagenic call (Test System: AMES SALMONELLA TYPHIMURIUM, Strain/Indicator: TA98, Metabolic Activation: NONE) is reported as “inactive; negative”, the mutagenic call (Test System: AMES SALMONELLA TYPHIMURIUM, Strain/Indicator: TA98, Metabolic Activation: RAT, LIVER, S-9, AROCLOR 1254) is reported as “inactive; negative” and the mutagenic call (Test System: AMES SALMONELLA TYPHIMURIUM, Strain/Indicator: TA100, Metabolic Activation: NONE) is reported as “inactive; negative”. The mutagenic call (Test System: AMES SALMONELLA TYPHIMURIUM, Strain/Indicator: TA100, Metabolic Activation: RAT, LIVER, S-9, AROCLOR 1254) was “inactive; negative”, the mutagenic call (Test System: AMES SALMONELLA TYPHIMURIUM, Strain/Indicator: TA1535, Metabolic Activation: NONE) was “inactive; negative” and the mutagenic call (Test System: AMES SALMONELLA TYPHIMURIUM, Strain/Indicator: TA1535, Metabolic Activation: RAT, LIVER, S-9, AROCLOR 1254) was “inactive; negative”. For the same compound, the mutagenic call (Test System: AMES SALMONELLA TYPHIMURIUM, Strain/Indicator: TA1537, Metabolic Activation: NONE) was “inactive; negative”, the mutagenic call (Test System: AMES SALMONELLA TYPHIMURIUM, Strain/Indicator: TA1537, Metabolic Activation: RAT, LIVER, S-9, AROCLOR 1254) was “inactive; negative” and the mutagenic call (Test System: E. COLI, Strain/Indicator: WP2 UVRA, Metabolic Activation: NONE) was “inactive; negative”. The mutagenic call (Test System: E. COLI, Strain/Indicator: WP2 UVRA, Metabolic Activation: RAT, LIVER, S-9, AROCLOR 1254) was “inactive; negative”.
`OC[C@@H](O)CCl` was tested, and the mutagenic call [9] was “inactive; negative”, the mutagenic call (Test System: AMES SALMONELLA TYPHIMURIUM, Strain/Indicator: TA98, Metabolic Activation: RAT, LIVER, S-9, KANECHLOR 500, Method: PREINCUBATION) was “inactive; negative” and the mutagenic call [10] was “active; positive”. The mutagenic call (Test System: AMES SALMONELLA TYPHIMURIUM, Strain/Indicator: TA100, Metabolic Activation: RAT, LIVER, S-9, KANECHLOR 500, Method: PREINCUBATION) was “inactive; negative” and the mutagenic call [11] was “active; positive”.
`CC(C)(C)C1=CC(=CC=C2C=C(C(C)(C)C)C(=O)C(C(C)(C)C)=C2)C=C(C(C)(C)C)C1=O` was tested, and the mutagenic call [9] was “inactive; negative”, the mutagenic call (Test System: AMES SALMONELLA TYPHIMURIUM, Strain/Indicator: TA98, Metabolic Activation: RAT, LIVER, S-9, Method: PREINCUBATION) was “inactive; negative” and the mutagenic call [10] was “inactive; negative”. For the same compound, the mutagenic call (Test System: AMES SALMONELLA TYPHIMURIUM, Strain/Indicator: TA100, Metabolic Activation: RAT, LIVER, S-9, Method: PREINCUBATION) was “inactive; negative”.
With `CN(C)C(=O)/C=C/c1ccc([N+](=O)[O-])o1` the mutagenic call [9] was “active; positive”.
With `O=C1c2ccccc2C(=O)c2c1ccc(O)c2O` the mutagenic call [9] was “inactive; negative”, the mutagenic call (Test System: AMES SALMONELLA TYPHIMURIUM, Strain/Indicator: TA98, Metabolic Activation: RAT, LIVER, S-9, PCB, Method: PREINCUBATION) was “inactive; negative” and the mutagenic call [10] was “inactive; negative”. The mutagenic call [2] was “inactive; negative”, the mutagenic call [3] was “inactive; negative” and the mutagenic call [11] was “inactive; negative”. For the same compound, the mutagenic call [4] was “inactive; negative”, the mutagenic call [5] was “inactive; negative” and the mutagenic call [6] was “active; positive”. For the same compound, the mutagenic call (Test System: AMES SALMONELLA TYPHIMURIUM, Strain/Indicator: TA1537, Metabolic Activation: RAT, LIVER, S-9, AROCLOR 1254, Method: STANDARD PLATE) was “active; positive”, the mutagenic call (Test System: AMES SALMONELLA TYPHIMURIUM, Strain/Indicator: TA1537, Metabolic Activation: RAT, LIVER, S-9, Method: PREINCUBATION) was “active; positive” and the mutagenic call [7] was “inactive; negative”. For the same compound, the mutagenic call [8] was “inactive; negative” and the mutagenic call (Test System: UDS RODENT HEPATOCYTES, Strain/Indicator: THY INCORP (NON-S-PHASE), Metabolic Activation: NONE, Method: AUTORADIOGRAPHY) was “active; positive”.
For `Nc1ccc2c(c1)C(=O)/C(=N/Nc1ccc(-c3ccc(N/N=C4\C=CC(=O)C(C(=O)O)=C4)cc3)cc1)C(S(=O)(=O)O)=C2`, the mutagenic call (Test System: AMES SALMONELLA TYPHIMURIUM, Strain/Indicator: TA98, Metabolic Activation: HAMSTER, LIVER, S-9, Method: PREINCUBATION (PRIVAL METHOD)) was “active; positive”.
